Measurements: publication PMC6910946, “Multiple roles of Bet v 1 ligands in allergen stabilization and modulation of endosomal protease activity” (Allergy, 2019)
Entries after “also recorded” stand apart in the source; their conditions may differ. Read-outs that look alike come from different tables or passages of the source.

What was measured:
Bet_v_1 = biological target: T1, Bet_v_1 (Betula pendula, UniProt P15494); assay: Thermal stability and secondary structure of Bet v 1 by circular dichroism (CD); format: physicochemical, Betula verrucosa; conditions: for increased melting point (T m) of Bet v 1 bound to ligand: CD and FTIR spectroscopy; for ΔCD: change of Tm of Bet v 1 versus no ligand
T1 construct: made in house
T1 sequence (P15494 1-160): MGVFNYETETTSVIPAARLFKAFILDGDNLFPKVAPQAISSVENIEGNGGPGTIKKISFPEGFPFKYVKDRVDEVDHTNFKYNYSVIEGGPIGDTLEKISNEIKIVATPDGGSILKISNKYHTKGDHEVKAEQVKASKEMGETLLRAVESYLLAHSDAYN
Source text: Surface acoustic wave (SAW) technology and NMR spectroscopy were used to observe the interaction of Bet_v_1 with the selected compounds, including determination of the dissociation constant (K d). The influence of ligand binding on the secondary structure elements and the thermal stability of Bet_v_1 was monitored using circular dichroism (CD, JASCO J‐815 spectropolarimeter, Jasco) and Fourier transform infrared (FTIR) spectroscopy (Tensor II FTIR system, Bruker Optics Inc). A detailed description of these methods is available (Appendix [Link], [Link]).
The influence of ligand binding on the secondary structure elements and the thermal stability of Bet v 1 was addressed by circular dichroism (CD) and Fourier transform infrared (FTIR) spectroscopy. CD spectroscopy was performed with a JASCO J-815 spectropolarimeter fitted with a PTC-423S Peltier-type single position cell holder (Jasco, Tokyo, Japan) over the wavelength range 190 to 260 nm. For measurement, Bet v 1 with and without ligand was diluted in a 10 mM potassium phosphate buffer to a concentration of 0.1 mg/ml. The thermal stability analysis was recorded at 222 nm. The protein was denatured with a temperature slope of 1°C/min from 20 to 95°C.

[1] = system: CD11c+ murine bone marrow–derived dendritic cells (BMDCs); assay: In vitro antigen uptake of labeled Bet v 1 by BMDCs; format: cell-based, mouse; conditions: Bet v 1 with or without ligand; 1, 6, 24 h; FACS
Description: (§1) The ability of ligand‐loaded Bet_v_1 to induce IgE‐antigen cross‐linking and basophil degranulation was assessed by mediator‐release assays using rat basophil (RBL‐2H3) cells, transfected with the human high‐affinity IgE receptor (FcεRI), as previously described.2, 24 In vitro uptake of labeled Bet_v_1 was performed using CD11c^+ murine bone marrow–derived dendritic cells (BMDCs). The maturation of human monocyte‐derived dendritic cells (moDCs) was analyzed as previously described.2 T‐cell proliferation assays using CD4^+ T‐cell hybridomas were performed as previously described.17 A detailed description of the in vitro assays is available (Appendix [Link], [Link]).
BMDCs from C57BL/6 mouse bone marrow were isolated as described previously.^5 cultured in BMDC medium (RPMI 1640, 5% fetal calf serum, 2 mM L-glutamine, 1% penicillin-streptomycin, 20% granulocyte-macrophage colony-stimulating factor supernatant and 200 µM β-mercaptoethanol) (BMDC medium) for 10 days, and stored frozen in liquid nitrogen. BMDCs were treated over a certain period of time (24, 6 or 1 hours) with 0.5 µg of Bet v 1 per 2x10^5 cells. Bet v 1 was labeled with pHrodo™ Red succinimidyl ester (Thermo Fisher Scientific, Waltham, MA, USA) and pre-incubated with one of the ligands (DOC, Q3OS or PPE1). CD11c^+ cells were analyzed via flow cytometry (allophycocyanin-conjugated anti-mouse CD11c antibody, clone N418; eBioscience, Inc., San Diego, CA, USA) on a FACSCanto II instrument (BD Biosciences, San Jose, CA, USA). For the live/dead staining a fixable viability stain 450 (BD Biosciences) was used. Granulocytes and monocytes were excluded via the V450 Rat anti-Mouse LY-6G and LY-6C (BD Biosciences) antibody. Data were recorded and analyzed using the BD FACSDiva software (BD Biosciences). Statistical analysis was performed using ANOVA with a Bonferroni post-test to compare all groups. The data represent the mean of duplicate experiments and are derived from at least 2 independent experiments.

[2] = system: murine BMDCs / CD4+ T‐cell hybridoma cells specific for epitope Thr142‐Ala153; assay: T-cell proliferation assay: Bet v 1 epitope presentation by BMDCs to CD4+ T-cell hybridomas (IL-2); format: cell-based, mouse; conditions: Bet v 1 10 µg/mL with 10-fold molar excess of ligand; 16, 24, 32, 48 h
Description: as §1
In order to test the relevance of the identified Bet_v_1 ligands in processing and presentation by DCs in a time‐dependent manner, we incubated BMDCs with Bet_v_1 in complex with different ligands and detected the presentation of Bet_v_1 by using CD4^+ T‐cell hybridoma cells specific for the immune‐dominant T‐cell epitope (Thr142‐Ala153). T‐cell proliferation was monitored indirectly by IL‐2 secretion (Figure 5).
Bet v 1 was incubated over night with a 10-fold molar excess of either Q3OS, PPB1, PPE1, or DOC before incubation with murine BMDCs at a concentration of 10 μg/mL in BMDC medium (online supporting information). After 16, 24, 32, and 48h, DCs were washed and CD4^+ T-cell hybridomas specific for the immune-dominant epitope 142-153 of Bet v 1 were added to the culture at a ratio of 1:10 (DC:T-cell) for 24h^17. Supernatants were harvested and IL-2 levels were determined by ELISA (Invitrogen, Thermo Fisher Scientific, Waltham, MA, USA). As a reference, BMDCs were pulsed at each time point with different concentrations of peptide 142-153 and co-cultured with CD4^+ T-cell hybridomas. By interpolating in a standard curve, a µM peptide equivalent from the measured IL-2 was calculated from DCs pulsed with different peptide concentrations. The assays were carried out in triplicates.

[3] = melting point of Bet v 1 with or without ligand, 222 nm

| SMILES | T m CD (Bet_v_1) [°C] | secondary structure content of Bet v 1 (Bet_v_1) | increased melting point (T m) of Bet v 1 bound to ligand (Bet_v_1) | antigen uptake of pHrodo Red‐labeled Bet v 1 [1] | MHCII presentation of Bet v 1 epitope (Thr142‐Ala153) on DCs, IL‐2 secretion [2] | secondary structure content of Bet v 1 (Bet_v_1; CD and FTIR, Figure S4) | ΔCD (Bet_v_1) | T m CD (Bet_v_1; [3]) [°C] |
| --- | --- | --- | --- | --- | --- | --- | --- | --- |
| C[C@H](CCC(=O)O)[C@H]1CC[C@H]2[C@@H]3CC[C@@H]4C[C@H](O)CC[C@]4(C)[C@H]3C[C@H](O)[C@]12C [DOC, sodium deoxycholate, reference compound] | 67.44 | did not significantly alter its secondary structure content | approximately 4 °C | None of the above described readouts was influenced | affected only after 48 hours | – | – | – |
| CCC1C(=O)CC(O)C1/C=C/C(O)CCCCCCCC(=O)O (stereo not shown) [PPE1, E1 phytoprostanes] | – | – | ~7 °C | None of the above described readouts was influenced | consistently affected the MHCII presentation; also recorded: unique reduction in the presentation of the T‐cell epitopes | did not significantly alter its secondary structure content | +6.94 °C | 70.62 |
| O=c1c(O[C@@H]2O[C@H](CO)[C@@H](O)[C@H](O)[C@H]2O[C@@H]2O[C@H](CO)[C@@H](O)[C@H](O)[C@H]2O)c(-c2ccc(O)c(O)c2)oc2cc(O)cc(O)c12 [Q3OS, quercetin 3‐O‐sophoroside] | – | – | – | None of the above described readouts was influenced | did not affect the presentation | did not significantly alter its secondary structure content | +0.36 °C | 64.04 |
